This is an account of results in patent publication US20250163104A1, “MACROCYCLIC IMMUNOMODULATORS” (priority 2021, published 2025).

*1 amine or outer side, *2 acyl side, *3 side chain or, on linkers, in order; H or OH if unused. Where a SMILES comes first, the peptide text is derived from it. Bridges are numbered along the chain shown (N, C = ends). [ ]: non-standard residue; d: D form. The star is where a group is joined. ξ: configuration not given here. Phe(4-COOH) = N[C@@H](Cc1ccc(C(=O)O)cc1)C(=O)O; Bip = N[C@@H](Cc1ccc(-c2ccccc2)cc1)C(=O)O; Phe(4-CN) = N#Cc1ccc(C[C@H](N)C(=O)O)cc1; Phe(3-Me) = Cc1cccc(C[C@H](N)C(=O)O)c1; Phe(4-F) = N[C@@H](Cc1ccc(F)cc1)C(=O)O; γGlu = O=C(O)[C@H](CCC(=O)[*:2])N[*:1]; Val(3-OH) = CC(C)(O)[C@H](N)C(=O)O; 4Pal = N[C@@H](Cc1ccncc1)C(=O)O; Cha = N[C@@H](CC1CCCCC1)C(=O)O; Thr(3ξ) = CC(O)[C@H](N)C(=O)O; dDab = NCC[C@@H](N)C(=O)O; Carboxymethyl = O=C(O)C*; Nle = CCCC[C@H](N)C(=O)O; Orn = NCCC[C@H](N)C(=O)O; Pra = C#CC[C@H](N)C(=O)O; Dab = NCC[C@H](N)C(=O)O

T1 sequence (Q15116 25-288): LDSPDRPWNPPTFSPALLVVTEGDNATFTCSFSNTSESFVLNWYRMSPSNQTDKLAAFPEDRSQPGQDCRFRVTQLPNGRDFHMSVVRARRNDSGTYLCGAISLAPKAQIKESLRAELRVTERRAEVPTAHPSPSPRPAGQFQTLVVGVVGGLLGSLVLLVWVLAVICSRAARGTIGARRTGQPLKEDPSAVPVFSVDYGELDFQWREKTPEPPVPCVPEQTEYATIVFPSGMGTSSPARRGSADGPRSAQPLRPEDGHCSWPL

This assay addresses T1, human PD-1 / PD-L1-Ig binding on Jurkat cell line over-expressing human PD-1 (Jurkat-PD-1) (Homo sapiens, UniProt Q15116).
T1 construct: expressed in transfected cells; host or cells: Jurkat
The experiment in a line: Jurkat-PD-1 Cell Binding High-Content Screening Assay (CBA). The assay is classed as cell-based. As to conditions: Jurkat-PD-1 cells, PE-labeled PD-L1-Ig 20 nM final; read-out: Jurkat HPD1_PDL1 IC50. In outline: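 Compounds were preincubated with Jurkat-hPD-1 cells in DMEM plus 10% fetal calf serum for 2 h at 37° C. Phycoerythrin-labeled PD-L1-Ig (20 nM final) was then added for 1 hour. Cells were fixed in 4% paraformaldehyde with Hoechst 33342, and bound fluorescence was quantified by high-content imaging.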
Consider `Cc1cccc(C[C@@H]2NC(=O)[C@H](CC(=O)O)NC(=O)[C@H](Cc3ccc(F)cc3)NC(=O)[C@H](Cc3ccncc3)NC(=O)CSC[C@@H](C(=O)N[C@@H](CCN)C(N)=O)NC(=O)[C@H](Cc3c[nH]cn3)NC(=O)[C@H](C(C)(C)O)NC(=O)[C@H](CC3CCCCC3)NC(=O)[C@H](CCN)NC(=O)[C@@H](CC(C)C)NC(=O)[C@H](CCCN)NC(=O)[C@H](Cc3ccc(OCC(=O)O)cc3)NC(=O)[C@H](Cc3ccc(-c4ccccc4)cc3)NC(=O)[C@H](Cc3ccc(OCC(=O)O)cc3)NC2=O)c1` [Compound 2672] ({CH2CO}-[4Pal][Phe(4-F)]D[Phe(3-Me)]Y(Carboxymethyl)[Bip]Y(Carboxymethyl)[Orn][dL][Dab][Cha][Val(3-OH)]HC[Dab]-NH2; thioether N-14), for which the IC50 (usually the concentration that gives 50% inhibition) was found to be 488 nM.
The value for `Cc1cccc(C[C@@H]2NC(=O)[C@H](CC(=O)O)NC(=O)[C@H](Cc3ccc(C#N)cc3)NC(=O)[C@H](C(C)O)NC(=O)CSC[C@@H](C(=O)N[C@@H](CCN)C(N)=O)NC(=O)[C@H](Cc3c[nH]cn3)NC(=O)[C@H](C(C)(C)O)NC(=O)[C@H](CC3CCCCC3)NC(=O)[C@H](CCN)NC(=O)[C@@H](CC(C)C)NC(=O)[C@H](CCCN)NC(=O)[C@H](Cc3ccc(OCC(=O)O)cc3)NC(=O)[C@H](Cc3ccc(-c4ccccc4)cc3)NC(=O)[C@H](Cc3ccc(OCC(=O)O)cc3)NC2=O)c1` (stereo partly drawn) [Compound 2673] ({CH2CO}-[Thr(3ξ)][Phe(4-CN)]D[Phe(3-Me)]Y(Carboxymethyl)[Bip]Y(Carboxymethyl)[Orn][dL][Dab][Cha][Val(3-OH)]HC[Dab]-NH2; thioether N-14) was 5.8 nM.
Take `COc1ccc(C[C@@H]2NC(=O)[C@H](C(C)O)NC(=O)CSC[C@@H](C(=O)N[C@@H](CCN)C(N)=O)NC(=O)[C@H](Cc3c[nH]cn3)NC(=O)[C@H](C(C)(C)O)NC(=O)[C@H](CC3CCCCC3)NC(=O)[C@H](CCN)NC(=O)[C@@H](CC(C)C)NC(=O)[C@H](CCCN)NC(=O)[C@H](Cc3ccc(OCC(=O)O)cc3)NC(=O)[C@H](Cc3ccc(-c4ccccc4)cc3)NC(=O)[C@H](Cc3ccc(OCC(=O)O)cc3)NC(=O)[C@H](Cc3cccc(C)c3)NC(=O)[C@H](CC(=O)O)NC2=O)cc1` (stereo partly drawn) [Compound 2674] ({CH2CO}-[Thr(3ξ)]Y(Me)D[Phe(3-Me)]Y(Carboxymethyl)[Bip]Y(Carboxymethyl)[Orn][dL][Dab][Cha][Val(3-OH)]HC[Dab]-NH2; thioether N-14): the IC50 came to 6.2 nM.
Turning to `Cc1cccc(C[C@@H]2NC(=O)[C@H](CC(=O)O)NC(=O)[C@H](Cc3ccc(C#N)cc3)NC(=O)[C@H](Cc3ccncc3)NC(=O)CSC[C@@H](C(=O)N[C@@H](CCN)C(N)=O)NC(=O)[C@H](Cc3c[nH]cn3)NC(=O)[C@H](C(C)(C)O)NC(=O)[C@H](CC3CCCCC3)NC(=O)[C@H](CCN)NC(=O)[C@@H](CC(C)C)NC(=O)[C@H](CCCN)NC(=O)[C@H](Cc3ccc(OCC(=O)O)cc3)NC(=O)[C@H](Cc3ccc(-c4ccccc4)cc3)NC(=O)[C@H](Cc3ccc(OCC(=O)O)cc3)NC2=O)c1` [Compound 2675] ({CH2CO}-[4Pal][Phe(4-CN)]D[Phe(3-Me)]Y(Carboxymethyl)[Bip]Y(Carboxymethyl)[Orn][dL][Dab][Cha][Val(3-OH)]HC[Dab]-NH2; thioether N-14), the IC50 was 795 nM.
Turning to `Cc1cccc(C[C@@H]2NC(=O)[C@H](CC(=O)O)NC(=O)[C@H](Cc3ccc(OCC(=O)O)cc3)NC(=O)[C@H](Cc3ccc(F)cc3)NC(=O)CSC[C@@H](C(=O)N[C@H](CCN)C(N)=O)NC(=O)[C@H](CCC(=O)O)NC(=O)[C@H](C(C)(C)O)NC(=O)[C@H](CC3CCCCC3)NC(=O)[C@H](CCN)NC(=O)[C@@H](CC(C)C)NC(=O)[C@H](CCCN)NC(=O)[C@H](Cc3ccc(OCC(=O)O)cc3)NC(=O)[C@H](Cc3ccc(-c4ccccc4)cc3)NC(=O)[C@H](Cc3ccc(OCC(=O)O)cc3)NC2=O)c1` [Compound 2676] ({CH2CO}-[Phe(4-F)]Y(Carboxymethyl)D[Phe(3-Me)]Y(Carboxymethyl)[Bip]Y(Carboxymethyl)[Orn][dL][Dab][Cha][Val(3-OH)]EC[dDab]-NH2; thioether N-14), the IC50 is 8.5 nM.
The value for `Cc1cccc(C[C@@H]2NC(=O)[C@H](CC(=O)O)NC(=O)[C@H](Cc3ccc(OCC(=O)O)cc3)NC(=O)[C@H](Cc3ccncc3)NC(=O)CSC[C@@H](C(=O)N[C@@H](CCN)C(N)=O)NC(=O)[C@H](CCC(=O)O)NC(=O)[C@H](C(C)(C)O)NC(=O)[C@H](CC3CCCCC3)NC(=O)[C@H](CCN)NC(=O)[C@@H](CC(C)C)NC(=O)[C@H](CCCN)NC(=O)[C@H](Cc3ccc(C(=O)O)cc3)NC(=O)[C@H](Cc3ccc(-c4ccccc4)cc3)NC(=O)[C@H](Cc3ccc(C(=O)O)cc3)NC2=O)c1` [Compound 2677] ({CH2CO}-[4Pal]Y(Carboxymethyl)D[Phe(3-Me)][Phe(4-COOH)][Bip][Phe(4-COOH)][Orn][dL][Dab][Cha][Val(3-OH)]EC[Dab]-NH2; thioether N-14) was 6 nM; that for `C#CC[C@H](NC(=O)CC[C@H](NC(=O)[C@H](CCN)NC(=O)[C@@H]1CSCC(=O)N[C@@H](CCN)C(=O)N[C@@H](Cc2ccc(OCC(=O)O)cc2)C(=O)N[C@@H](CC(=O)O)C(=O)N[C@@H](Cc2cccc(C)c2)C(=O)N[C@@H](Cc2ccc(C(=O)O)cc2)C(=O)N[C@@H](Cc2ccc(-c3ccccc3)cc2)C(=O)N[C@@H](Cc2ccc(C(=O)O)cc2)C(=O)N[C@@H](CCCN)C(=O)N[C@H](CC(C)C)C(=O)N[C@@H](Cc2cnc[nH]2)C(=O)N[C@@H](CC2CCCCC2)C(=O)N[C@@H](C(C)(C)O)C(=O)N[C@@H](CCC(=O)O)C(=O)N1)C(=O)O)C(N)=O` [Compound 2678] ({CH2CO}-[Dab]Y(Carboxymethyl)D[Phe(3-Me)][Phe(4-COOH)][Bip][Phe(4-COOH)][Orn][dL]H[Cha][Val(3-OH)]EC[Dab][γGlu][Pra]-NH2; thioether N-14) was 12.2 nM; that for `Cc1cccc(C[C@@H]2NC(=O)[C@H](CC(=O)O)NC(=O)[C@H](Cc3ccc(C(=O)O)cc3)NC(=O)[C@H](C(C)O)NC(=O)CSC[C@@H](C(=O)N[C@@H](CCN)C(N)=O)NC(=O)[C@H](Cc3cnc[nH]3)NC(=O)[C@H](C(C)(C)O)NC(=O)[C@H](CC3CCCCC3)NC(=O)[C@H](CCN)NC(=O)[C@@H](CC(C)C)NC(=O)[C@H](CCCN)NC(=O)[C@H](Cc3ccc(OCC(=O)O)cc3)NC(=O)[C@H](Cc3ccc(-c4ccccc4)cc3)NC(=O)[C@H](Cc3ccc(OCC(=O)O)cc3)NC2=O)c1` (stereo partly drawn) [Compound 2683] ({CH2CO}-[Thr(3ξ)][Phe(4-COOH)]D[Phe(3-Me)]Y(Carboxymethyl)[Bip]Y(Carboxymethyl)[Orn][dL][Dab][Cha][Val(3-OH)]HC[Dab]-NH2; thioether N-14) was 1.9 nM.
The value for `Cc1cccc(C[C@@H]2NC(=O)[C@H](CC(=O)O)NC(=O)[C@H](Cc3ccc(C(=O)O)cc3)NC(=O)[C@H](Cc3ccc(F)cc3)NC(=O)CSC[C@@H](C(=O)N[C@@H](CCN)C(N)=O)NC(=O)[C@H](Cc3cnc[nH]3)NC(=O)[C@H](C(C)(C)O)NC(=O)[C@H](CC3CCCCC3)NC(=O)[C@H](CCN)NC(=O)[C@@H](CC(C)C)NC(=O)[C@H](CCCN)NC(=O)[C@H](Cc3ccc(OCC(=O)O)cc3)NC(=O)[C@H](Cc3ccc(-c4ccccc4)cc3)NC(=O)[C@H](Cc3ccc(OCC(=O)O)cc3)NC2=O)c1` [Compound 2684] ({CH2CO}-[Phe(4-F)][Phe(4-COOH)]D[Phe(3-Me)]Y(Carboxymethyl)[Bip]Y(Carboxymethyl)[Orn][dL][Dab][Cha][Val(3-OH)]HC[Dab]-NH2; thioether N-14) was 1.9 nM.
The value for `Cc1cccc(C[C@@H]2NC(=O)[C@H](CC(=O)O)NC(=O)[C@H](Cc3ccc(F)cc3)NC(=O)[C@H](C(C)O)NC(=O)CSC[C@@H](C(=O)N[C@@H](CCN)C(N)=O)NC(=O)[C@H](C(C)O)NC(=O)[C@H](C(C)(C)O)NC(=O)[C@H](CC3CCCCC3)NC(=O)[C@H](CCN)NC(=O)[C@@H](CC(C)C)NC(=O)[C@H](CCCN)NC(=O)[C@H](Cc3ccc(C(=O)O)cc3)NC(=O)[C@H](Cc3ccc(-c4ccccc4)cc3)NC(=O)[C@H](Cc3ccc(C(=O)O)cc3)NC2=O)c1` (stereo partly drawn) [Compound 2685] ({CH2CO}-[Thr(3ξ)][Phe(4-F)]D[Phe(3-Me)][Phe(4-COOH)][Bip][Phe(4-COOH)][Orn][dL][Dab][Cha][Val(3-OH)][Thr(3ξ)]C[Dab]-NH2; thioether N-14) was 6 nM; that for `C#CC[C@H](NC(=O)[C@@H]1CSCC(=O)N[C@@H](CCN)C(=O)N[C@@H](Cc2ccc(OCC(=O)O)cc2)C(=O)N[C@@H](CC(=O)O)C(=O)N[C@@H](Cc2cccc(C)c2)C(=O)N[C@@H](Cc2ccc(OCC(=O)O)cc2)C(=O)N[C@@H](Cc2ccc(-c3ccccc3)cc2)C(=O)N[C@@H](Cc2ccc(OCC(=O)O)cc2)C(=O)N[C@@H](CCCN)C(=O)N[C@H](CC(C)C)C(=O)N[C@@H](CCN)C(=O)N[C@@H](CC2CCCCC2)C(=O)N[C@@H](C(C)(C)O)C(=O)N[C@@H](CCCN)C(=O)N1)C(=O)O` [Compound 2686] ({CH2CO}-[Dab]Y(Carboxymethyl)D[Phe(3-Me)]Y(Carboxymethyl)[Bip]Y(Carboxymethyl)[Orn][dL][Dab][Cha][Val(3-OH)][Orn]C[Pra]-OH; thioether N-14) was 33.3 nM; that for `CCCC[C@@H]1NC(=O)CSC[C@@H](C(=O)N[C@@H](CCN)C(N)=O)NC(=O)[C@H](CO)NC(=O)[C@H](C(C)(C)O)NC(=O)[C@H](CC2CCCCC2)NC(=O)[C@H](CCN)NC(=O)[C@@H](CC(C)C)NC(=O)[C@H](CCCN)NC(=O)[C@H](Cc2ccc(OCC(=O)O)cc2)NC(=O)[C@H](Cc2ccc(-c3ccccc3)cc2)NC(=O)[C@H](Cc2ccc(OCC(=O)O)cc2)NC(=O)[C@H](Cc2cccc(C)c2)NC(=O)[C@H](CC(=O)O)NC(=O)[C@H](Cc2ccc(OCC(=O)O)cc2)NC1=O` [Compound 2687] ({CH2CO}-[Nle]Y(Carboxymethyl)D[Phe(3-Me)]Y(Carboxymethyl)[Bip]Y(Carboxymethyl)[Orn][dL][Dab][Cha][Val(3-OH)]SC[Dab]-NH2; thioether N-14) was 0.4 nM.
